Test results taken from EP0558245A1, “Heterobicyclic compounds as antagogists of alpha-1 adrenergic and SHT1A receptors” (priority 1992, dated 1993).
Read-outs that look alike come from different tables or passages of the source.

Tests used:
[1] = Acute toxicity in mice after intraperitoneal and oral administration; conditions: mouse, in vivo, female albino Swiss mice, mortality recorded 7 days after administration
Method: Male Sprague Dawley rats [Crl: CD' BR] of 200-300 g b.w., female Albino Swiss mice [Crl: CD-1 (ICR) BR] 20-30 g b.w., and male Beagle dogs (10-12 kg b.w.) were obtained from Charles River, Italy and Nossan (Correzzana, Milan, Italy), respectively. Animals were housed with free access to food and water and maintained on forced light-dark cycle at 22-24°C until the day of experiments.
The acute toxicity of synthesized compounds was evaluated in female albino Swiss mice after intraperitoneal and oral administration. Four logarithmic scaled doses of the compounds were dissolved or suspended in 0.5% Methocel and administered in a volume of 10 ml/kg to groups of 4 mice/dose. Mortality was recorded 7 days after the administration. Data analysis: the LD₅₀ values and their fiducial limits were calculated according to the method of Weil (Biometrics, 8, 249, 1952).

α₁ receptors = test: [3H]prazosin binding (α1 receptors), rat cerebral cortex membranes; conditions: rat cerebral cortex crude membranes, [3H]prazosin 0.35 nM, 25°C 30 min; read-out: Receptor Binding IC50 (nM) α1
5HT1A receptors = biological target: T1, 5HT1A receptors (Rattus norvegicus, UniProt P19327); test: [3H]8-OH-DPAT binding (5HT1A receptors), rat hippocampus membranes; conditions: rat hippocampus crude membranes, [3H]8-OH-DPAT 1.0 nM, 25°C 30 min; read-out: Receptor Binding IC50 (nM) 5-HT1a
T1 construct: Rat hippocampi were homogenized; from tissue; host or cells: rat hippocampus membranes
T1 sequence (P19327 1-422): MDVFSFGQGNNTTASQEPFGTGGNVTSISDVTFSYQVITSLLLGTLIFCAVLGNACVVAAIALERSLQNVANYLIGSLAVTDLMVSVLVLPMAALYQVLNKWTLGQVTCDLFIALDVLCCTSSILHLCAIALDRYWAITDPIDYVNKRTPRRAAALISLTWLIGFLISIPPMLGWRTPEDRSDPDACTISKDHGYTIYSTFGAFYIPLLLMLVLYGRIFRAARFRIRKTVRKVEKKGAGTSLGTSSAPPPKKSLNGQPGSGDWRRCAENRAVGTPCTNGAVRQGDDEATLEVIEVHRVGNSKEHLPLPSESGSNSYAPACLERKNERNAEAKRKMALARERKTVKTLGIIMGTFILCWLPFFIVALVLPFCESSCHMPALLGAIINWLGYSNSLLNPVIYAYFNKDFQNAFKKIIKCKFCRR

| SMILES | LD50 at 168 h ([1]; ip, intraperitoneal, read-out: Acute Toxicity in Mice LD50 (mg/kg) i.p.) [mg/kg] | LD50 at 168 h ([1]; oral, read-out: Acute Toxicity in Mice LD50 (mg/kg) p.o.) [mg/kg] | IC50 (α₁ receptors) [nM] | IC50 (5HT1A receptors) [nM] |
| --- | --- | --- | --- | --- |
| COc1ccccc1N1CCN(CCCC(=O)c2cccc3c(=O)c(C)c(-c4ccccc4)oc23)CC1.CS(=O)(=O)O | > 500 | > 2000 | – | – |
| COc1ccccc1N1CC[N+]([O-])(CCCOc2cccc3c(=O)c(C)c(-c4ccccc4)oc23)CC1 [Example 43, 8-{3-[4-(2-methoxyphenyl)-1-oxo-1-piperazinyl]-propoxy}-3-methyl-4-oxo-2-phenyl-4H-1-benzopyran 1.75-hydrate] | – | – | 166 | > 1000 |
| COc1ccccc1N1CCN(CCCSc2cccc3c(=O)c(C)c(-c4ccccc4)oc23)CC1 [Example 46, 8-{3-[4-(2-methoxyphenyl)-1-piperazinyl]-propylthio}-3-methyl-4-oxo-2-phenyl-4H-1-benzopyran] | – | – | 86 | 23 |
| COc1ccccc1N1CCN(CCCNC(=O)c2cccc3c(=O)c(-c4ccccc4)coc23)CC1 [Example 64, 8-{3-[4-(2-methoxyphenyl)-1-piperazinyl]-propylcarbamoyl}-3-phenyl-4-oxo-4H-1-benzopyran dimethanesulphonate] | – | – | 40 | 11 |
| Cc1c(-c2ccccc2)oc2c(C(=O)NCCCNCC3CCc4ccccc4C3=O)cccc2c1=O (stereo not shown) [Example 65, 8-{3-[(3,4-dihydro-1-oxo-2H-naphthyl)-methylamino]-propylcarbamoyl}-3-methyl-4-oxo-2-phenyl-4H-1-benzopyran methanesulphonate] | – | – | – | 26 |
| COc1ccccc1N1CCN(CCCN(OC2CCCCO2)C(=O)c2cccc3c(=O)c(C)c(-c4ccccc4)oc23)CC1 (stereo not shown) [Example 68, 8-{N-(2-tetrahydropyranyloxy)-3-[4-(2-methoxyphenyl)-1-piperazinyl]-propylcarbamoyl}-3-methyl-4-oxo-2-phenyl-4H-1-benzopyran methanesulphonate hemihydrate] | – | – | 29 | 13 |
| COc1ccccc1N1CCN(CCCN(O)C(=O)c2cccc3c(=O)c(C)c(-c4ccccc4)oc23)CC1 [Example 71, 8-{N-hydroxy-3-[4-(2-methoxyphenyl)-1-piperazinyl]-propylcarbamoyl}-3-methyl-4-oxo-2-phenyl-4H-1-benzopyran methanesulphonate 0.25 H20] | – | – | 108 | 69 |
| COc1ccccc1OCCCNCCCNC(=O)c1cccc2c(=O)c(C)c(-c3ccccc3)oc12 [Example 74, 8-{3-[3-(2-methoxyphenoxy)-propylamino]-propylcarbamoyl}-3-methyl-4-oxo-2-phenyl-4H-1-benzopyran methanesulphonate hemihydrate] | – | – | 178 | 482 |
| CSc1ccccc1OCCNCCCNC(=O)c1cccc2c(=O)c(C)c(-c3ccccc3)oc12 [Example 75, 8-{3-[2-(2-methylthiophenoxy)-ethylamino]-propylcarbamoyl}-3-methyl-4-oxo-2-phenyl-4H-1-benzopyran methanesulphonate] | – | – | 147 | 15 |
| COc1ccccc1N1CCN(CC/C=C/c2cccc3c(=O)c(C)c(-c4ccccc4)oc23)CC1 [Example 78, (E)-8-{4-[4-(2-methoxyphenyl)-1-piperazinyl]-1-butenyl}-3-methyl-4-oxo-2-phenyl-4H-1-benzopyran] | – | – | 18 | 116 |
| COc1ccccc1N1CCN(CCNC(=O)Cc2cccc3c(=O)cc(-c4ccccc4)oc23)CC1 [Example 80, 8-{2-[4-(2-methoxyphenyl)-1-piperazinyl]-ethylcarbamoylmethyl}-4-oxo-2-phenyl-4H-1-benzopyran methanesulphonate hydrate] | – | – | 28 | 162 |
| COc1ccccc1N1CCN(CCCN(C(C)=O)C(=O)c2cccc3c(=O)c(C)c(-c4ccccc4)oc23)CC1 [Example 81, 8-{N-acetyl-3-[4-(2-methoxyphenyl)-1-piperazinyl]-propylcarbamoyl}-3-methyl-4-oxo-2-phenyl-4H-1-benzopyran] | – | – | 13 | 81 |
| COc1ccccc1N1CCN(CCCNC(=S)c2cccc3c(=O)c(C)c(-c4ccccc4)oc23)CC1 [Example 83, 8-{3-[4-(2-methoxyphenyl)-1-piperazinyl]-propylthiocarbamoyl}-3-methyl-4-oxo-2-phenyl-4H-1-benzopyran methanesulphonate] | – | – | 30 | 5 |
| COc1ccccc1N1CCN(CCCCS(=O)(=O)c2cccc3c(=O)c(C)c(-c4ccccc4)oc23)CC1 [Example 84, 8-{4-[4-(2-methoxyphenyl)-1-piperazinyl]-butylsulphonyl}-3-methyl-4-oxo-2-phenyl-4H-1-benzopyran methanesulphonate . ¼ H₂O] | – | – | 5 | 2 |
| COc1ccccc1N1CCN(CCCNC(=O)c2cccc3c(=O)c(CO)c(-c4ccccc4)oc23)CC1 [Example 85, 8-{3-[4-(2-methoxyphenyl)-1-piperazinyl]-propylcarbamoyl}-3-hydroxymethyl-4-oxo-2-phenyl-4H-1-benzopyran. 0.4 ethanol] | – | – | 16 | 14 |
| COc1ccccc1N1CCN(CCCNC(=O)c2cccc3c(=O)cc(-c4ccccc4)oc23)CC1 [Example 86, 8-{3-[4-(2-methoxyphenyl)-1-piperazinyl]-propylcarbamoyl}-4-oxo-2-phenyl-4H-1-benzopyran methanesulphonate . ¼ H₂O] | – | – | 48 | 20 |
| COc1ccccc1N1CCN(CCCNC(=O)c2cccc3c(=O)ccoc23)CC1 [Example 88, 8-{3-[4-(2-methoxyphenyl)-1-piperazinyl]-propylcarbamoyl}-4-oxo-4H-1-benzopyran methanesulphonate . 1.25 H₂O] | – | – | 216 | 11 |
| COc1ccccc1N1CCN(CCCNC(=O)c2cc([N+](=O)[O-])cc3c(=O)c(C)c(-c4ccccc4)oc23)CC1 [Example 93, 8-{3-[4-(2-methoxyphenyl)-1-piperazinyl]-propylcarbamoyl}-3-methyl-6-nitro-4-oxo-2-phenyl-4H-1-benzopyran] | – | – | 47 | 38 |
| COc1ccccc1N1CCN(CCCNC(=O)c2cc(N)cc3c(=O)c(C)c(-c4ccccc4)oc23)CC1 [Example 94, 8-{3-[4-(2-methoxyphenyl)-1-piperazinyl]-propylcarbamoyl}-6-amino-3-methyl-4-oxo-2-phenyl-4H-1-benzopyran] | – | – | 39 | 66 |
| COc1ccccc1N1CCN(CCCNC(=O)c2c(OC)ccc3c(=O)c(C)c(-c4ccccc4)oc23)CC1 [Example 98, 8-{3-[4-(2-methoxyphenyl)-1-piperazinyl]-propylcarbamoyl}-7-methoxy-3-methyl-4-oxo-2-phenyl-4H-1-benzopyran] | – | – | 103 | 12 |
| COc1ccccc1N1CCN(CCCNC(=O)c2cccc3c(=O)c(C)c(-c4ccc(C(F)(F)F)cc4)oc23)CC1 [Example 99, 8-{3-[4-(2-methoxyphenyl)-1-piperazinyl]-propylcarbamoyl}-3-methyl-4-oxo-2-(4-trifluoromethylphenyl)-4H-1-benzopyran methanesulphonate sesquihydrate] | – | – | 44 | 5 |
| COc1ccccc1N1CCN(CCCNC(=O)c2cccc3c(=O)c(C)c(C)oc23)CC1 [Example 102, 8-{3-[4-(2-methoxyphenyl)-1-piperazinyl]-propylcarbamoyl}-2,3-dimethyl-4-oxo-4H-1-benzopyran] | – | – | 56 | 18 |
